Tested on: S. aureus strain ALC6094
Assay: Murine model of subcutaneous infection (abscess), IPTG induction of MazFsa
Type: in vivo, Balb/C female mice
Details: for Log10 CFU/abscess: sacrifice day 4, n = 9
From the text: A murine model of subcutaneous infections (abscess) was used. Such models are well-established as methods to screen for in vivo activity to affect infection processes (Tamber et al. 2010. Infect. Immun. 78:3637-3646).
In the present experiments, a bacterial strain ALC6094, which is a derivative of S. aureus strain Newman was used. This strain contains a chromosomal copy of the T7 polymerase gene and the plasmid pG164::mazFsa, which is a shuttle plasmid with an IPTG-inducible T7 promoter driving MazFsa expression. Mice were challenged with 2×10^7 CFU of bacteria via subcutaneous (s.q.) injection and mixed with 1 mM IPTG immediately before injection. After injection, half of the IPTG-treated animals received two saline injections daily while the remaining half were injected with 1 mM IPTG (s.q.) daily for 2 days. All animals were sacrificed on day 4, including untreated control groups receiving no IPTG. […] Thus, drugs that disrupt the MazEF complex would be novel compounds for use in treating S. aureus bacterial infections.
Balb/C female mice (20-22 grams) were used to assess the utility of disrupting MazEFsa activity in vivo as a potential method for testing for drug efficacy. The mice were infected subcutaneously with 200 μl of 1.5×10^8 CFU/ml of bacteria. The bacterial strain used was ALC6094, which is a derivative of S. aureus strain Newman containing a chromosomal copy of the T7 polymerase gene and the plasmid pG164::mazFsa, which is a shuttle plasmid with an IPTG-inducible T7 promoter driving MazFsa expression. Control mice were infected with the bacteria but received no further injections. Two treatment groups were tested: 1) mice injected with ALC6094 that was mixed with IPTG immediately before injection (1 ml of a 5 mM solution of IPTG); and 2) mice injected with ALC6094 mixed with IPTG and then given daily IPTG injections for two subsequent days. Animal were sacrificed on day 4 after injection. Only mice receiving saline control developed visible abscesses by day 3, while those animals receiving IPTG had visible erythematous injection sites.

Compound: CC(C)S[C@@H]1O[C@H](CO)[C@H](O)[C@H](O)[C@H]1O [IPTG]
- Log10 CFU/abscess (ALC6094 mixed with IPTG immediately before s.q. injection): 6.57 ± 0.83 Log10 CFU/abscess
- Log10 CFU/abscess (ALC6094 mixed with IPTG plus daily IPTG injections for two subsequent days): 6.59 ± 0.95 Log10 CFU/abscess
- abscess size vs. no IPTG controls (mice receiving IPTG induction for MazFsa): smaller abscess sizes

Reference: US20130295017A1, “METHODS FOR SCREENING ANTIBIOTIC COMPOUNDS” (priority 2010, published 2013)
